# From ChEMBL document CHEMBL1128244, “Synthesis, structure-activity relationships, and pharmacological evaluation of pyrrolo[3,2,1-ij]quinoline derivatives: potent histamine and platelet activating factor antagonism and 5-lipoxygenase inhibitory properties. Potential therapeutic application in asthma” (J Med Chem, 1995)
# Calls of active or inactive are those of the source. The rule behind the calls is not given here.
# Key:
# Cavia porcellus [1] = species on record: Cavia porcellus; experiment: Ability to inhibit histamine-induced contractions of isolated guinea pig ileum at 10e-5 M; type: functional
# Oryctolagus cuniculus = species on record: Oryctolagus cuniculus; experiment: Test against PAF-induced aggregation of rabbit platelets in vitro; type: functional
# Cavia porcellus [2] = species on record: Cavia porcellus; experiment: Ability to inhibit histamine-induced contractions of isolated guinea pig ileum; type: functional
# [3] = molecular target: T1, Polyunsaturated fatty acid 5-lipoxygenase (Homo sapiens) (UniProt P09917); experiment: (§1) Inhibitory activity uM; conditions: Cavia porcellus; concentration not given here
# T1 sequence (whole entry): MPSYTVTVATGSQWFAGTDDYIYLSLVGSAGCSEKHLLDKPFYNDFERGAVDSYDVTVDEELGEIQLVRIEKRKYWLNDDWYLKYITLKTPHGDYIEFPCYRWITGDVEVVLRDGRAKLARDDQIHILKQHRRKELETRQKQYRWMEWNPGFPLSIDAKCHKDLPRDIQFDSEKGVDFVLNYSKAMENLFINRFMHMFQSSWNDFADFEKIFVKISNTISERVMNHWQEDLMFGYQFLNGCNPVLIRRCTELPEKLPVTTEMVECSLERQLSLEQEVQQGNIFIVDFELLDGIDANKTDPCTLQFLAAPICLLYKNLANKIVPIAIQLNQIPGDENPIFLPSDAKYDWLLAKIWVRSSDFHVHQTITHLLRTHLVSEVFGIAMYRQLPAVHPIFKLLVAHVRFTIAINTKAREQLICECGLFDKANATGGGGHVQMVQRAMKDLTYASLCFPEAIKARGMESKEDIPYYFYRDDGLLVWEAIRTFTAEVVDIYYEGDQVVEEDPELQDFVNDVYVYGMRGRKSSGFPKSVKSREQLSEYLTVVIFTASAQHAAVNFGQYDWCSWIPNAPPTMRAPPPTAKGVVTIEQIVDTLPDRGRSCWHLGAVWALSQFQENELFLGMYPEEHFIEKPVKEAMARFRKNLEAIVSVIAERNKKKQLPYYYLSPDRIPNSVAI
# Rattus norvegicus [4] = species on record: Rattus norvegicus; experiment: Inhibition of cutaneous histamine reaction in rats.; type: functional
# Cavia porcellus [5] = experiment: Ability to inhibit histamine phase of antigen-induced bronchoconstriction in vivo in pulmonary function assays in which Guinea pigs were dosed orally 5 hours prior to test at 10 uM/kg; Not active; type: functional, organism-based
# [6] = molecular target: T1, Polyunsaturated fatty acid 5-lipoxygenase (Homo sapiens); experiment: Inhibitory activity against partially-purified Guinea pig PMN 5-lipoxygenase at 10 uM; conditions: Cavia porcellus, target entry is the homologue from another species
# Cavia porcellus [7] = experiment: Ability to inhibit histamine phase of antigen-induced bronchoconstriction in vivo in pulmonary function assays in which Guinea pigs were dosed orally 5 hours prior to test; type: functional; conditions: po
# Cavia porcellus [8] = experiment: Ability to inhibit histamine phase of platelet activating factor (PAF)-induced bronchoconstriction in vivo in pulmonary function assays in which Guinea pigs were dosed orally 5 hours prior to test; type: functional; conditions: po
# Rattus norvegicus [9] = experiment: Antiallergic activity in the rat PCA assay following oral administration 1 hour before antigen challenge. Five animals were used in this experiment.; type: functional
# [10] = molecular target: T1, Polyunsaturated fatty acid 5-lipoxygenase (Homo sapiens); experiment: as §1; type: functional; conditions: Cavia porcellus; concentration not given here
# Cavia porcellus [11] = species on record: Cavia porcellus; experiment: Ability to inhibit histamine-induced contractions of isolated guinea pig ileum at 10e-6 M; Not active; type: functional
Compound,IC50 (Oryctolagus cuniculus) [µM],IC50 (Cavia porcellus [2]) [µM],ED50 (Rattus norvegicus [4]) [µmol/kg],other results
COc1ccc(N2CCN(CCc3c(C)n4c5c(cccc35)CCC4)CC2)cc1,82,–,–,inhibition at 10 µM (Cavia porcellus [1]): 9%
Cc1c(CCN2CCN(c3ccc(Br)cn3)CC2)c2cccc3c2n1CCC3,> 100,0.99,–,–
Cc1cccnc1N1CCN(CCc2c(C)n3c4c(cccc24)CCC3)CC1,67,–,–,inhibition at 10 µM (Cavia porcellus [1]): 7%
Cc1ccnc(N2CCN(CCc3c(C)n4c5c(cc(C(=O)C(C)(C)C)cc35)CCC4)CC2)c1,5.9,0.089,3.3,inhibition [3]: 22%
Cc1ccnc(N2CCN(CCc3c(-c4ccccc4)n4c5c(cccc35)CCC4)CC2)c1,4.2,–,–,inhibition at 10 µM (Cavia porcellus [1]): 24%
CC(c1cc2ccccc2s1)N(O)C(N)=O (stereo unspecified),–,–,–,ED50 (Cavia porcellus [5]): inactive
Cc1ccnc(N2CCN(CCc3c(C)n4c5c(cc(C)cc35)CCC4)CC2)c1,9.1,0.07,–,–
Cc1ccnc(N2CCN(CCc3c(C)n4c5c(cc(C(=O)C6CCCCC6)cc35)CCC4)CC2)c1,2,0.25,2.9,inhibition [3]: 68%
CC(=O)Oc1cc2c3c(c1)c(CCN1CCN(c4cc(C)ccn4)CC1)c(C)n3CCC2,–,0.023,–,–
Cc1ccnc(N2CCN(CCc3c(C)n4c5c(cc(C(=O)C(C)C)cc35)CCC4)CC2)c1,1.9,0.037,2.9,inhibition [6]: 36%
Cc1ccc(N2CCN(C(=O)Cc3c(C)n4c5c(cccc35)CCC4)CC2)nc1,42,8.3,–,–
Cc1ccnc(N2CCN(C(=O)Cc3c(C)n4c5c(cccc35)CCC4)CC2)c1,9.6,5.9,–,–
Cc1ccnc(N2CCN(CCc3cn4c5c(cccc35)CCC4)CC2)c1,31,0.063,–,–
CC(C)=Cc1cc2c3c(c1)c(CCN1CCN(c4cc(C)ccn4)CC1)c(C)n3CCC2,22,0.14,4.9,inhibition [3]: 41%
Cc1ccc(N2CCN(CCc3c(C)n4c5c(cccc35)CCC4)CC2)nc1,> 100,0.18,–,–
COc1ccc(-c2c(CCN3CCN(c4cc(C)ccn4)CC3)c3cccc4c3n2CCC4)cc1,0.6,–,–,inhibition at 10 µM (Cavia porcellus [1]): 15%
Cc1ccnc(N2CCN(CCc3c(-c4ccc(O)cc4)n4c5c(cccc35)CCC4)CC2)c1,2,–,–,inhibition at 10 µM (Cavia porcellus [1]): 14%
Cc1ccnc(N2CCN(CCc3c(-c4ccc(F)cc4)n4c5c(cccc35)CCC4)CC2)c1,2,–,–,inhibition at 10 µM (Cavia porcellus [1]): 3%
Cc1ccnc(N2CCN(CCc3c(C)n4c5c(cc(NC(=O)c6ccccc6)cc35)CCC4)CC2)c1,> 100,0.086,3,inhibition [3]: 40%
Cc1ccnc(N2CCN(CCc3c(C)n4c5c(cc(O)cc35)CCC4)CC2)c1,39,0.021,6,–

Compound,IC50 (Oryctolagus cuniculus) [µM],IC50 (Cavia porcellus [2]) [µM],ED50 (Rattus norvegicus [4]) [µmol/kg],other results
Cc1c(CCCN2CCN(c3ccc(F)cc3)CC2)c2cccc3c2n1CCC3,> 100,1.9,–,–
O=C(O)COCCN1CCN(C(c2ccccc2)c2ccc(Cl)cc2)CC1 (stereo unspecified) [CETIRIZINE],> 100,0.38,–,–
Cc1ccnc(N2CCN(CCc3c(C)n4c5c(cc(C(O)C(C)C)cc35)CCC4)CC2)c1 (stereo unspecified),4.2,0.11,2.6,inhibition [3]: 8%
Cc1ccnc(N2CCN(CCc3c(C)n4c5c(cc(CC6CCCCC6)cc35)CCC4)CC2)c1,39,–,–,inhibition at 10 µM (Cavia porcellus [1]): 50%
Cc1c(CCN2CCN(c3ccc(F)c(Cl)c3)CC2)c2cccc3c2n1CCC3,> 100,0.51,–,–
Cc1c(CC(=O)N2CCN(c3ccc(F)cc3)CC2)c2cccc3c2n1CCC3,44,7.1,–,–
Cc1ccnc(N2CCN(CCc3c(C)n4c5c(cc(C(=O)/C=C/c6ccccc6)cc35)CCC4)CC2)c1,–,0.19,–,–
Cc1ccnc(N2CCN(CCc3c(C)n4c5c(cccc35)CCC4C3CCCCC3)CC2)c1 (stereo unspecified),25,–,–,inhibition at 10 µM (Cavia porcellus [1]): 50%
Cc1c(CCN2CCN(c3ccccn3)CC2)c2cccc3c2n1CCC3,40,0.065,–,–
Cc1ccnc(N2CCN(CCCc3c(C)n4c5c(cccc35)CCC4)CC2)c1,32,1.8,–,–
CCCCC1CCc2cc(OC)cc3c(CCN4CCN(c5cc(C)ccn5)CC4)c(C)n1c23 (stereo unspecified),1.4,0.34,0.9,inhibition [3]: 50%
CCCCC1CCc2cccc3c(CCN4CCN(c5cc(C)ccn5)CC4)c(C)n1c23 (stereo unspecified),4.8,0.98,2.1,inhibition [3]: 29%
CCCCCCC(=O)c1cc2c3c(c1)c(CCN1CCN(c4cc(C)ccn4)CC1)c(C)n3CCC2,2.4,1.2,–,–
CCCCC1CCc2cc(O)cc3c(CCN4CCN(c5cc(C)ccn5)CC4)c(C)n1c23 (stereo unspecified),2,0.26,2.8,inhibition [3]: 100%; ED50 (Cavia porcellus [7]): 1.9 µmol/kg; ED50 (Cavia porcellus [8]): 2.1 µmol/kg; ED50 (Rattus norvegicus [9]): 0.9 µmol/kg
Cc1c(CCN2CCC(c3ccccc3)CC2)c2cccc3c2n1CCC3,75,0.45,–,–
Cc1ccnc(N2CCN(CCc3c(C)n4c5c(cccc35)CCC4)CC2)c1,2.6,0.032,4,inhibition [3]: 0%
Cc1ccnc(N2CCN(CCc3c(C)n4c5c(cccc35)CCC4C)CC2)c1 (stereo unspecified),6.9,0.033,2.6,inhibition [3]: 19%
CCCCC1CCc2cc(C(=O)C(C)C)cc3c(CCN4CCN(c5cc(C)ccn5)CC4)c(C)n1c23 (stereo unspecified),2,0.4,3.3,inhibition [3]: 50%
Cc1ccnc(N2CCN(CCc3c(C)n4c5c(cc(CC(C)C)cc35)CCC4)CC2)c1,4.3,0.8,5.1,inhibition [3]: 20%
Cc1ccnc(N2CCN(CCc3c(C)n4c5c(cc(Cc6ccccc6)cc35)CCC4)CC2)c1,2.8,2.4,–,–

Compound,IC50 (Oryctolagus cuniculus) [µM],IC50 (Cavia porcellus [2]) [µM],ED50 (Rattus norvegicus [4]) [µmol/kg],other results
Cc1ccnc(N2CCN(CCc3c(C)n4c5c(cc(N)cc35)CCC4)CC2)c1,84,0.08,2.5,inhibition [10]: 64%
Cc1ccnc(N2CCN(CCc3c(C)n4c5c(cccc35)CCC4c3ccccc3)CC2)c1 (stereo unspecified),2.2,0.28,2.9,inhibition [3]: 17%
Cc1ccnc(N2CCN(C(=O)CCc3c(C)n4c5c(cccc35)CCC4)CC2)c1,20,1.4,–,–
CN1CCCC(n2nc(Cc3ccc(Cl)cc3)c3ccccc3c2=O)CC1 (stereo unspecified) [AZELASTINE],> 100,0.02,3.3,ED50 (Rattus norvegicus [9]): 7 µmol/kg
Cc1cccc(N2CCN(CCc3c(C)n4c5c(cccc35)CCC4)CC2)n1,47,0.35,–,–
O=C(c1ccccc1)c1cccc(NC(=O)c2ccn3c2CS[C@@H]3c2cccnc2)c1 [TULOPAFANT],–,–,–,ED50 (Cavia porcellus [5]): inactive; ED50 (Cavia porcellus [8]): 5.5 µmol/kg; IC50 (Cavia porcellus [11]): Not Active
Cc1c(CCN2CCN(c3ccc(F)cc3)CC2)c2cccc3c2n1CCC3,> 100,0.076,–,–
Cc1c(CCN2CCC(C(=O)c3ccc(F)cc3)CC2)c2cccc3c2n1CCC3,> 100,0.49,–,–
COc1ccccc1N1CCN(CCc2c(C)n3c4c(cccc24)CCC3)CC1,82,0.25,–,–
CN1CCC(=C2c3ccccc3CC(=O)c3sccc32)CC1 [KETOTIFEN],> 100,0.0064,0.16,ED50 (Cavia porcellus [7]): 0.31 µmol/kg; ED50 (Rattus norvegicus [9]): 0.44 µmol/kg
CCCCCCCC1CCc2cccc3c(CCN4CCN(c5cc(C)ccn5)CC4)c(C)n1c23 (stereo unspecified),–,–,–,inhibition at 10 µM (Cavia porcellus [1]): 50%
COc1cc2c3c(c1)c(CCN1CCN(c4cc(C)ccn4)CC1)c(C)n3CCC2,6.2,0.03,0.7,inhibition [3]: 15%
Cc1ccnc(N2CCN(CCc3c(Cc4ccccc4)n4c5c(cccc35)CCC4)CC2)c1,22,2.9,–,–
COc1ccc(CN(CCN(C)C)c2ccccn2)cc1 [PYRILAMINE],> 100,0.017,–,–
CC(=O)c1cc2c3c(c1)c(CCN1CCN(c4cc(C)ccn4)CC1)c(C)n3CCC2,7.5,0.019,2,inhibition [3]: 48%
Cc1ccnc(N2CCN(CCc3c(-c4ccc(Cl)cc4)n4c5c(cccc35)CCC4)CC2)c1,3.3,–,–,inhibition at 10 µM (Cavia porcellus [1]): 6%
Cc1ccnc(N2CCN(CCc3c(C)n4c5c(cc(C(=O)c6ccccc6)cc35)CCC4)CC2)c1,0.8,0.29,–,–
Cc1ccc(-c2c(CCN3CCN(c4cc(C)ccn4)CC3)c3cccc4c3n2CCC4)cc1,2,–,–,IC50 (Cavia porcellus [1]): 20 µM
